Results taken from patent publication US4362743A, “Antibacterial monic acid esters” (Beecham Group Limited, priority 1980, dated 1982).
≈ marks a conversion by molar mass, not a printed value. Read-outs that look alike come from different tables or passages of the source.

How the values were obtained:
Assay type in all cases: cell-based
[1] = tested on: Strep. suis (Group D) SPS11; assay: Veterinary bacteria MIC; details: Streptococcus suis
Protocol: (§1) The values were determined using a two fold serial dilutions in Diagnostic Sensitivity Test Agar with an inoculum of 10^4 organisms and incubation for 18 hours at 37° C.

[2] = tested on: Corynebacterium pyogenes CY1; assay: Veterinary bacteria MIC; details: Trueperella pyogenes, CY1, 18 h
Protocol: as §1

E. coli El = assay: Veterinary bacteria MIC; details: Escherichia coli, 18 h
Protocol: as §1

Bord. brochiasetpica B09 = assay: Veterinary bacteria MIC; details: Diagnostic Sensitivity Test Agar, 18 hours 37° C.
Protocol: as §1

Past. haemolytica PA5 = assay: Veterinary bacteria MIC; details: Mannheimia haemolytica
Protocol: as §1

E. coli NCTC 10418 = assay: Veterinary bacteria MIC; details: Escherichia coli, NCTC10418, 18 h
Protocol: as §1

[3] = tested on: Staph. aureus B4 (pen. resistant); assay: Veterinary bacteria MIC; details: Staphylococcus aureus, Diagnostic Sensitivity Test Agar, 18 hours 37° C.
Protocol: as §1

S. typhimurium S18 = assay: Veterinary bacteria MIC; details: Salmonella enterica, TYPHIMURIUM, 18 h
Protocol: as §1

S. dublin S7 = assay: Veterinary bacteria MIC; details: Salmonella enterica, S7, 18 h
Protocol: as §1

Bord. bronchiseptica B08 = assay: Veterinary bacteria MIC; details: Bordetella bronchiseptica; Bord. bronchiseptica B08; Diagnostic Sensitivity Test Agar, 18 hours 37° C.; read-out: M.I.C.
Protocol: as §1

Strep. dysgalactiae SPD1 = assay: Veterinary bacteria MIC; details: Streptococcus dysgalactiae, Diagnostic Sensitivity Test Agar, 18 hours 37° C.
Protocol: as §1

[4] = tested on: Erysipelothrix rhusiopathiae NCTC 8163; assay: Veterinary bacteria MIC
Protocol: as §1

Strep. uberis SPU1 = assay: Veterinary bacteria MIC; details: Streptococcus uberis, Diagnostic Sensitivity Test Agar, 18 hours 37° C.
Protocol: as §1

[5] = tested on: Staph. aureus 152 (pen. sens); assay: Veterinary bacteria MIC; details: Staphylococcus aureus, Diagnostic Sensitivity Test Agar, 18 hours 37° C.
Protocol: as §1

Staph. aureus Oxford [6] = assay: Veterinary bacteria MIC; details: Staphylococcus aureus, Diagnostic Sensitivity Test Agar, 18 hours 37° C.
Protocol: as §1

Past. multocida PA2 = assay: Veterinary bacteria MIC; details: Pasteurella multocida; Past. multocida PA2; Diagnostic Sensitivity Test Agar, 18 hours 37° C.; read-out: M.I.C.
Protocol: as §1

Strep. agalactiae SPA1 = assay: Veterinary bacteria MIC; details: Streptococcus agalactiae, Diagnostic Sensitivity Test Agar, 18 hours 37° C.
Protocol: as §1

Past. multocida PA1 = assay: Veterinary bacteria MIC; details: Pasteurella multocida, Diagnostic Sensitivity Test Agar, 18 hours 37° C.
Protocol: as §1

M. suipneumoniae TAM 6N = assay: Anti-mycoplasmal activity in vitro MIC; details: Mesomycoplasma hyopneumoniae, TAM6N, 144 h
M. suipneumoniae MS16 = assay: Anti-mycoplasmal activity in vitro MIC; details: Mesomycoplasma hyopneumoniae, 144 h; M. suipneumoniae MS16; Friis broth, 0.9% agarose, 6 days 37° C.; read-out: M.I.C.
Strep. Group C 64/848 = assay: Human bacteria MIC; details: Strep. Group C 64/848; nutrient agar, 5% chocolated horse blood, 18 hours 37° C.; read-out: M.I.C.
Protocol: (§2) The values were determined by serial dilutions in nutrient agar with 5% chocolated horse blood after incubations for 18 hours at 37° C.

E. coli ESS = assay: Human bacteria MIC; details: Escherichia coli
Protocol: as §2

P. mirabilis 889 = assay: Human bacteria MIC
Protocol: as §2

Strep Group B 2788 = assay: Human bacteria MIC; details: Strep Group B 2788; nutrient agar, 5% chocolated horse blood, 18 hours 37° C.; read-out: M.I.C.
Protocol: as §2

Strep. pneumoniae CN33 = assay: Human bacteria MIC; details: Streptococcus pneumoniae; Strep. pneumoniae CN33; nutrient agar, 5% chocolated horse blood, 18 hours 37° C.; read-out: M.I.C.
Protocol: as §2

Staph. aureus W2827 = assay: Human bacteria MIC; details: Staphylococcus aureus
Protocol: as §2

K. aerogenes A = assay: Human bacteria MIC; details: Klebsiella aerogenes
Protocol: as §2

Staph. aureus Oxford [7] = assay: Human bacteria MIC; details: Staphylococcus aureus; Staph. aureus Oxford; nutrient agar, 5% chocolated horse blood, 18 hours 37° C.; read-out: M.I.C.
Protocol: as §2

[8] = tested on: Neisseria catarralis 1502; assay: Human bacteria MIC; details: Neisseria catarralis 1502; nutrient agar, 5% chocolated horse blood, 18 hours 37° C.; read-out: M.I.C.
Protocol: as §2

Ps. aeruginosa 10662 = assay: Human bacteria MIC
Protocol: as §2

Bacillus subtilis 6633 = assay: Human bacteria MIC
Protocol: as §2

| SMILES | MIC [2] [µg/mL] | MIC (E. coli El) [µg/mL] | MIC (Bord. brochiasetpica B09) [µg/mL] | MIC (E. coli NCTC 10418) [µg/mL] | MIC [3] [µg/mL] | MIC (S. typhimurium S18) [µg/mL] | MIC (S. dublin S7) [µg/mL] | MIC (Bord. bronchiseptica B08) [µg/mL] | MIC (Strep. dysgalactiae SPD1) [µg/mL] | MIC (Strep. uberis SPU1) [µg/mL] | MIC [5] [µg/mL] | MIC (Staph. aureus Oxford [6]) [µg/mL] | MIC (Past. multocida PA2) [µg/mL] | MIC (Strep. agalactiae SPA1) [µg/mL] | MIC (Past. multocida PA1) [µg/mL] | MIC (M. suipneumoniae MS16) [µg/mL] | MIC (Strep. Group C 64/848) [µg/mL] | MIC (Strep Group B 2788) [µg/mL] | MIC (Strep. pneumoniae CN33) [µg/mL] | MIC (Staph. aureus Oxford [7]) [µg/mL] | other results |
| --- | --- | --- | --- | --- | --- | --- | --- | --- | --- | --- | --- | --- | --- | --- | --- | --- | --- | --- | --- | --- | --- |
| C/C(=C\C(=O)OCc1ccc(C=NO)o1)C[C@@H]1OC[C@H](C[C@@H]2O[C@H]2[C@@H](C)[C@H](C)O)[C@@H](O)[C@H]1O [Example 7, 5-Hydroxyiminomethylfurfuryl monate A] | > 80 | > 80 | 2.5 (≈ 5.35 µM) | > 80 | 1.25 (≈ 2.67 µM) | > 80 | > 80 | > 80 | 0.625 (≈ 1.34 µM) | 0.625 (≈ 1.34 µM) | 1.25 (≈ 2.67 µM) | 1.25 (≈ 2.67 µM) | 0.625 (≈ 1.34 µM) | 1.25 (≈ 2.67 µM) | 0.625 (≈ 1.34 µM) | 0.5 (≈ 1.07 µM) | 2.5 (≈ 5.35 µM) | 2.5 (≈ 5.35 µM) | 2.5 (≈ 5.35 µM) | 2.5 (≈ 5.35 µM) | MIC ([1]; Strep. suis (Group D) SPS11, Diagnostic Sensitivity Test Agar, 18 hours 37° C., read-out: M.I.C.): 20 µg/mL (≈ 42.8 µM); MIC (Past. haemolytica PA5; PA5, 18 h): 5 µg/mL (≈ 10.7 µM); MIC ([4]; Erysipelothrix rhusiopathiae, NCTC8163, 18 h): > 80 µg/mL; MIC (M. suipneumoniae TAM 6N): 1 µg/mL (≈ 2.14 µM); MIC (E. coli ESS; 18 h): 2.5 µg/mL (≈ 5.35 µM); MIC (P. mirabilis 889; Proteus mirabilis, 889, 18 h): > 100 µg/mL; MIC (Staph. aureus W2827; W2827, 18 h): 5 µg/mL (≈ 10.7 µM); MIC (K. aerogenes A; 18 h): > 100 µg/mL; MIC [8]: 0.25 µg/mL (≈ 0.535 µM); MIC (Ps. aeruginosa 10662; Pseudomonas aeruginosa, 10662, 18 h): > 100 µg/mL; MIC (Bacillus subtilis 6633; Bacillus subtilis, 6633, 18 h): 1 µg/mL (≈ 2.14 µM) |
| C/C(=C\C(=O)OCCCC(=NO)c1ccccc1)C[C@@H]1OC[C@H](C[C@@H]2O[C@H]2[C@@H](C)[C@H](C)O)[C@@H](O)[C@H]1O [Example 1, 4-Hydroxyimino-4-phenylbutyl monate A] | > 80 | > 80 | 20 (≈ 39.6 µM) | > 80 | 0.625 (≈ 1.24 µM) | > 80 | > 80 | 40 (≈ 79.1 µM) | 0.625 (≈ 1.24 µM) | 0.156 (≈ 0.309 µM) | 0.625 (≈ 1.24 µM) | 0.625 (≈ 1.24 µM) | 0.625 (≈ 1.24 µM) | 0.625 (≈ 1.24 µM) | 2.5 (≈ 4.94 µM) | 0.1 (≈ 0.198 µM) | 2.5 (≈ 4.94 µM) | 2.5 (≈ 4.94 µM) | 0.5 (≈ 0.989 µM) | 2.5 (≈ 4.94 µM) | MIC ([1]; 18 h): 5 µg/mL (≈ 9.89 µM); MIC (Past. haemolytica PA5; Past. haemolytica PA5, Diagnostic Sensitivity Test Agar, 18 hours 37° C., read-out: M.I.C.): 10 µg/mL (≈ 19.8 µM); MIC ([4]; NCTC8163, Erysipelothrix rhusiopathiae NCTC 8163, Diagnostic Sensitivity Test Agar, 18 hours 37° C., read-out: M.I.C.): 20 µg/mL (≈ 39.6 µM); MIC (M. suipneumoniae TAM 6N; M. suipneumoniae TAM 6N, Friis broth, 0.9% agarose, 6 days 37° C., read-out: M.I.C.): 0.25 µg/mL (≈ 0.494 µM); MIC (E. coli ESS; E. coli ESS, nutrient agar, 5% chocolated horse blood, 18 hours 37° C., read-out: M.I.C.): 2.5 µg/mL (≈ 4.94 µM); MIC (P. mirabilis 889; Proteus mirabilis, P. mirabilis 889, nutrient agar, 5% chocolated horse blood, 18 hours 37° C., read-out: M.I.C.): > 100 µg/mL; MIC (Staph. aureus W2827; Staph. aureus W2827, nutrient agar, 5% chocolated horse blood, 18 hours 37° C., read-out: M.I.C.): 2.5 µg/mL (≈ 4.94 µM); MIC (K. aerogenes A; K. aerogenes A, nutrient agar, 5% chocolated horse blood, 18 hours 37° C., read-out: M.I.C.): > 100 µg/mL; MIC [8]: 0.2 µg/mL (≈ 0.396 µM); MIC (Ps. aeruginosa 10662; Pseudomonas aeruginosa, Ps. aeruginosa 10662, nutrient agar, 5% chocolated horse blood, 18 hours 37° C., read-out: M.I.C.): > 100 µg/mL; MIC (Bacillus subtilis 6633; Bacillus subtilis 6633, nutrient agar, 5% chocolated horse blood, 18 hours 37° C., read-out: M.I.C.): 1 µg/mL (≈ 1.98 µM) |
